The test system of data set [1] is viable cells. The data set is described as follows: MTT Cell Proliferation assay, effect on cell death. Type of data set: cell-based. As to the method:
In order to measure the effect of an extraction or a fraction of Lycoris chejuensis on cell death, MTT Cell Proliferation assay (ATCC catalog #30-1010K, Manassas, USA), which is a conventionally known method, was used. In particular, a cell was treated with various concentrations of an ethanol extract (CJ) of Lycoris chejuensis and a butanol fraction (CJ-3) of Lycoris chejuensis for 8 hours, and then, viable cells were quantified.
On the technique in general: Tetrazolium dyes change colour on reduction, which living cells bring about.

Data set [2] concerns β-amyloid (Aβ40) production. The data set is described as follows: β-amyloid (Aβ40) production in APP-transfected HeLa cells, ELISA of culture solution. Type of data set: cell-based, human. As to the method: (§1) In order to examine the effect of the ethanol extract of Lycoris chejuensis obtained in Example <1-1> to inhibit β-amyloid production, HeLa cell line transfected with human amyloid precursor protein(APP) was cultured in DMEM culture medium (Cat. #11995, Gibco, USA). The cell line was supplied by Prof. Tae-Wan Kim, Department of Pathology, Columbia University Medical Center, New York, N.Y.10032, USA.
(§2) To the cell culture solution, the ethanol extract of Lycoris chejuensis (CJ) obtained in Example <1-1> was added, and then, it was cultured at 37° C. for 8 hours, and the amount of β-amyloid secreted in the culture solution was measured. More specifically, in order to quantify β-amyloid, two kinds of β-amyloid (Aβ40, Aβ42), Human β-Amyloid (Aβ40) and Human β-Amyloid (Aβ42) Colorimetric ELISA kits (#KHB3482 and #KHB3442; BioSource International, Inc., USA) were respectively used. The negative control means the case to which the extract of Lycoris chejuensis was not added.
In general terms: An ELISA detects its analyte on a solid surface through an enzyme-linked reagent.

Data set [3] has as its system β-amyloid (Aβ42) production. The data set is described as follows: β-amyloid (Aβ42) production in APP-transfected HeLa cells, ELISA of culture solution. Type of data set: cell-based, human. On the procedure: as §1, §2
The subject of data set [4] is β-amyloid (Aβ42) production. The data set is described as above. Particulars: for Inhibition rate (%) of Aβ42 production compared to that of negative control: 8 hours. Type of data set: cell-based, human.
Data set [5] relates to β-amyloid (Aβ40) production. The data set is described as follows: β-amyloid (Aβ40) production in APP-transfected HeLa cells, ELISA of culture solution. The format is cell-based, human. Particulars: for Inhibition rate (%) of Aβ40 production compared to that of negative control: 8 hours.
The subject of data set [6] is β-secretase product (sAPPβ) production. Description: β-secretase product (sAPPβ) production in APP-transfected HeLa cells, sAPPβ-Wild Type Assay Kit. Type of data set: cell-based. The note with it: Homo sapiens, read-out: Inhibition rate (%) of sAPPβ production compared to negative control. The source says:
The cause of inhibition of β-amyloid production in the Experimental example <3> was examined in more detail. β-amyloid was produced from amyloid precursor(APP) by continuous actions of membrane protein hydrolytic enzyme, β-secretase (BACE1), and γ-secretase (Vassa and Citron, Neuron 27, 419-422, 2000). More specifically, β-secretase product(sAPPβ) is produced from amyloid precursor (APP) by the action of β-secretase, from which β-amyloid is produced by the action of γ-secretase.
Based on the above, it was identified whether or not dihydrolycoricidine obtained in Example <2-1> is capable of inhibiting the production of β-secretase product(sAPPβ). Specifically, the same procedure as Experimental example <3> was conducted except that sAPPβ-Wild Type Assay Kit (Immuno-Biological Laboratories Co., Ltd., Japan) was used for quantifying sAPPβ. The negative control means the case to which dihydrolycoricidine was not added.

Where [7] appears, read: 10, 5, 1, 0.5, 0.2, 0.1 and 0.05 μg/ml, 8 hours.
[8] abbreviates: Homo sapiens, HeLa, 8 h, read-out: Inhibition rate (%) of Aβ40 production compared to that of negative control.
Where [9] appears, read: Homo sapiens, HeLa, 8 h, read-out: Inhibition rate (%) of Aβ42 production compared to that of negative control.

As a reminder, the inhibition is the relative decrease from the control value, in per cent.

Where only a bound is given, the exact number is not on record here.

The molecule `COC1C=C2C3CN(Cc4cc5c(cc43)OCO5)C2CC1O` (stereo not shown) [2-methoxypancracine] registered a cells died in data set [1] (5 μg/ml (FIG. 11)) of at most 10%. Moreover, the “β-amyloid (Aβ40) production (FIG. 7)” value in data set [2] (setting [7]) was “inhibited by 2-methoxypancracine in a concentration dependent manner”. The “β-amyloid (Aβ42) production (FIG. 7)” value in data set [3] (setting [7]) was “inhibited by 2-methoxypancracine in a concentration dependent manner”.

`O=C1NC2C(CC(O)C(O)C2O)c2cc3c(cc21)OCO3` (stereo not shown) [dihydrolycoricidine]: the inhibition at 5 µM in data set [4] (Homo sapiens, HeLa, 5 μM, read-out: Inhibition rate (%) of Aβ42 production compared to that of negative control) amounted to 58.8%; in data set [5] (Homo sapiens, HeLa, 5 μM, read-out: Inhibition rate (%) of Aβ40 production compared to that of negative control), 28.4%; in data set [6] (5 μM) it was 6%. Moreover, the inhibition at 10 µM is 63.8% in data set [4] (Homo sapiens, HeLa, 10 μM, read-out: Inhibition rate (%) of Aβ42 production compared to that of negative control); 56.1% in data set [5] (Homo sapiens, HeLa, 10 μM, read-out: Inhibition rate (%) of Aβ40 production compared to that of negative control); 12% in data set [6] (10 μM). Besides, the inhibition at 25 µM in data set [4] (Homo sapiens, HeLa, 25 μM, read-out: Inhibition rate (%) of Aβ42 production compared to that of negative control) is 88.8%; in data set [5] (Homo sapiens, HeLa, 25 μM, read-out: Inhibition rate (%) of Aβ40 production compared to that of negative control), 59.8%; in data set [6] (25 μM) it was 28.9%. Further, the inhibition at 50 µM in data set [4] (Homo sapiens, HeLa, 50 μM, read-out: Inhibition rate (%) of Aβ42 production compared to that of negative control) came to 92.2%; in data set [5] (Homo sapiens, HeLa, 50 μM, read-out: Inhibition rate (%) of Aβ40 production compared to that of negative control), 63%; in data set [6] (50 μM), 36.1%. In addition, the cells died in data set [1] (50 μM) is listed as at most 30%. The “Cell death (%) compared to negative control” value (“Cell death (%)” below) turned out to be 18.3% in data set [1] (dihydrolycoricidine 5 μM), 23.3% in data set [1] (dihydrolycoricidine 10 μM), 25.3% in data set [1] (dihydrolycoricidine 25 μM) and 28.1% in data set [1] (dihydrolycoricidine 50 μM).

As for `O=C1NC2C(=CC(O)C(O)C2O)c2cc3c(cc21)OCO3` (stereo not shown) [lycoricidine], the cells died in data set [1] (10 μM (lycoricidine)) is at most 20%. Also, the “Cell death (%)” value in data set [1] (8 h, 0.01 μg/ml) was found to be 4.9%; in data set [1] (8 h, 0.1 μg/ml), 11.3%; in data set [1] (8 h, 1 μg/ml), 19.0%; in data set [1] (8 h, 10 μg/ml), 21.1%. Further, the inhibition at 0.01 µg/mL is 3.3% in data set [2] (setting [8]) and 16% in data set [3] (setting [9]). The inhibition at 0.1 µg/mL in data set [2] (setting [8]) came out at 67%; in data set [3] (setting [9]), 81.3%. Moreover, the results for the inhibition at 1 µg/mL in data set [2] (setting [8]) and in data set [3] (setting [9]) were 92.8% and 97.5%, respectively. For the same molecule, the inhibition at 10 µg/mL amounted to 97.2% in data set [2] (setting [8]) and 100% in data set [3] (setting [9]).

Take `O=C1NC2C(=CC(O)C(O)C2O)c2cc3c(c(O)c21)OCO3` (stereo not shown) [lycoricidinol]: the “Inhibition rate (%) of Aβ42 production compared to that of negative control” value worked out at 44.0% in data set [4] (lycoricidinol 0.01 μg/ml), 97.0% in data set [4] (lycoricidinol 0.1 μg/ml), 100% in data set [4] (lycoricidinol 1 μg/ml) and 100% in data set [4] (lycoricidinol 10 μg/ml). Also, the “Inhibition rate (%) of Aβ40 production compared to that of negative control” value turned out to be 25.0% in data set [5] (lycoricidinol 0.01 μg/ml), 90.4% in data set [5] (lycoricidinol 0.1 μg/ml), 97.8% in data set [5] (lycoricidinol 1 μg/ml) and 98.4% in data set [5] (lycoricidinol 10 μg/ml). The molecule further displayed a cells died in data set [1] (10 μM (lycoricidinol)) of at most 20%. Moreover, the “Cell death (%)” value in data set [1] (lycoricidinol 0.01 μg/ml) is reported as 10.3%; in data set [1] (lycoricidinol 0.1 μg/ml), 11.6%; in data set [1] (lycoricidinol 1 μg/ml), 16.5%; in data set [1] (lycoricidinol 10 μg/ml) it was 19.3%.
